Experimental data reported in ChEMBL document CHEMBL1201862, “PubChem BioAssay data set” (2004).
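Results reflect a 48-hour exposure of cells in 96-well plates to compound at five concentrations. The concentration for 50% growth inhibition is given as GI50.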 The source made the active and inactive calls. Cut-off read from the data, not from the text of the source: active = GI50 up to about 1.1 µM and inactive = higher.

Columns and labels:
Experiment in all cases: NCI anticancer screen, dose series, 48 h
MDA-MB-435 = test system: MDA-MB-435
HCT-15 = test system: HCT-15
RXF 393 = test system: RXF 393
MDA-MB-231 = test system: MDA-MB-231
HCC 2998 = test system: HCC 2998
SNB-75 = test system: SNB-75
HOP-62 = test system: HOP-62
SK-MEL-5 = test system: SK-MEL-5
786-0 = test system: 786-0
CCRF-CEM = test system: CCRF-CEM
HOP-92 = test system: HOP-92
OVCAR-8 = test system: OVCAR-8
SN12C = test system: SN12C
NCI-H522 = test system: NCI-H522
NCI/ADR-RES = test system: NCI/ADR-RES
A498 = test system: A498
CAKI-1 = test system: CAKI-1
OVCAR-3 = test system: OVCAR-3
Hs-578T = test system: Hs-578T
UACC-257 = test system: UACC-257
IGROV-1 = test system: IGROV-1
LOX IMVI = test system: LOX IMVI
ACHN = test system: ACHN
TK-10 = test system: TK-10
SF-539 = test system: SF-539
OVCAR-5 = test system: OVCAR-5
SR = test system: SR
MDA-N = test system: MDA-N
KM12 = test system: KM12
SF-295 = test system: SF-295
SF-268 = test system: SF-268
EKVX = test system: EKVX
NCI-H460 = test system: NCI-H460
PC-3 = test system: PC-3
COLO 205 = test system: COLO 205
M14 = test system: M14
T47D = test system: T47D
BT-549 = test system: BT-549
NCI-H23 = test system: NCI-H23
HL-60 = test system: HL-60
MOLT-4 = test system: MOLT-4
SNB-19 = test system: SNB-19
SW-620 = test system: SW-620
DU-145 = test system: DU-145
UACC-62 = test system: UACC-62
UO-31 = test system: UO-31
K562 = test system: K562
OVCAR-4 = test system: OVCAR-4
HCT-116 = test system: HCT-116
SK-OV-3 = test system: SK-OV-3
MCF7 = test system: MCF7
NCI-H226 = test system: NCI-H226
SK-MEL-2 = test system: SK-MEL-2
U-251 = test system: U-251
Malme-3M = test system: Malme-3M
SK-MEL-28 = test system: SK-MEL-28
RPMI-8226 = test system: RPMI-8226
HT-29 = test system: HT-29
A549 = test system: A549

`O=C(CCCCCC(=O)N1CC(CCl)c2ccc([N+](=O)[O-])cc21)N1CC(CCl)c2ccc([N+](=O)[O-])cc21` (stereo not drawn) was tested, and the GI50 (MDA-MB-435) was > 100 µM (inactive), the GI50 (HCT-15) was over 100 µM and the GI50 (RXF 393) was > 100 µM (inactive). For the same molecule, the GI50 (MDA-MB-231) was > 100 µM (inactive), the GI50 (HCC 2998) was 23.7 µM (inactive) and the GI50 (SNB-75) was 48.1 µM (inactive). For the same molecule, the GI50 (HOP-62) was 95.7 µM (inactive), the GI50 (SK-MEL-5) was 52.5 µM (inactive) and the GI50 (786-0) was > 100 µM (inactive). The GI50 (CCRF-CEM) was 91.4 µM (inactive), the GI50 (HOP-92) was > 100 µM (inactive) and the GI50 (OVCAR-8) was > 100 µM (inactive). The GI50 (SN12C) was > 100 µM (inactive), the GI50 (NCI-H522) was > 100 µM (inactive) and the GI50 (NCI/ADR-RES) was > 100 µM (inactive). For the same molecule, the GI50 (A498) was 87.1 µM (inactive), the GI50 (CAKI-1) was > 100 µM (inactive) and the GI50 (OVCAR-3) was > 100 µM (inactive). For the same molecule, the GI50 (Hs-578T) was > 100 µM (inactive), the GI50 (UACC-257) was > 100 µM (inactive) and the GI50 (IGROV-1) was > 100 µM (inactive). The GI50 (LOX IMVI) was > 100 µM (inactive), the GI50 (ACHN) was > 100 µM (inactive) and the GI50 (TK-10) was > 100 µM (inactive). For the same molecule, the GI50 (SF-539) was > 100 µM (inactive), the GI50 (OVCAR-5) was > 100 µM (inactive) and the GI50 (SR) was 9.31 µM (inactive). For the same molecule, the GI50 (MDA-N) was > 100 µM (inactive), the GI50 (KM12) was > 100 µM (inactive) and the GI50 (SF-295) was 87.1 µM (inactive). For the same molecule, the GI50 (SF-268) was > 100 µM (inactive), the GI50 (EKVX) was > 100 µM (inactive) and the GI50 (NCI-H460) was 34 µM (inactive). The GI50 (PC-3) was > 100 µM (inactive), the GI50 (COLO 205) was > 100 µM (inactive) and the GI50 (M14) was > 100 µM (inactive). The GI50 (T47D) was > 100 µM (inactive), the GI50 (BT-549) was > 100 µM (inactive) and the GI50 (NCI-H23) was > 100 µM (inactive). The GI50 (HL-60) was 75.3 µM (inactive), the GI50 (MOLT-4) was > 100 µM (inactive) and the GI50 (SNB-19) was > 100 µM (inactive). For the same molecule, the GI50 (SW-620) was > 100 µM (inactive), the GI50 (DU-145) was > 100 µM (inactive) and the GI50 (UACC-62) was > 100 µM (inactive). The GI50 (UO-31) was > 100 µM (inactive), the GI50 (K562) was > 100 µM (inactive) and the GI50 (OVCAR-4) was > 100 µM (inactive). The GI50 (HCT-116) was > 100 µM (inactive), the GI50 (SK-OV-3) was > 100 µM (inactive) and the GI50 (MCF7) was 36.9 µM (inactive). The GI50 (NCI-H226) was > 100 µM (inactive), the GI50 (SK-MEL-2) was > 100 µM (inactive) and the GI50 (U-251) was > 100 µM (inactive).
For `CC1(CCCO)CCCCCC(C)(CCCO)C1=O` (stereo not drawn), the GI50 (MDA-MB-435) was > 100 µM (inactive), the GI50 (HCT-15) was over 100 µM and the GI50 (Malme-3M) was > 100 µM (inactive). For the same molecule, the GI50 (RXF 393) was > 100 µM (inactive), the GI50 (MDA-MB-231) was > 100 µM (inactive) and the GI50 (SK-MEL-28) was > 100 µM (inactive). For the same molecule, the GI50 (HCC 2998) was > 100 µM (inactive), the GI50 (SNB-75) was 92.3 µM (inactive) and the GI50 (RPMI-8226) was > 100 µM (inactive). The GI50 (HOP-62) was > 100 µM (inactive), the GI50 (SK-MEL-5) was > 100 µM (inactive) and the GI50 (786-0) was > 100 µM (inactive). For the same molecule, the GI50 (CCRF-CEM) was > 100 µM (inactive), the GI50 (HOP-92) was > 100 µM (inactive) and the GI50 (OVCAR-8) was > 100 µM (inactive). For the same molecule, the GI50 (SN12C) was > 100 µM (inactive), the GI50 (NCI-H522) was > 100 µM (inactive) and the GI50 (NCI/ADR-RES) was > 100 µM (inactive). The GI50 (A498) was > 100 µM (inactive), the GI50 (CAKI-1) was > 100 µM (inactive) and the GI50 (OVCAR-3) was > 100 µM (inactive). The GI50 (Hs-578T) was > 100 µM (inactive), the GI50 (UACC-257) was > 100 µM (inactive) and the GI50 (IGROV-1) was > 100 µM (inactive). For the same molecule, the GI50 (HT-29) was > 100 µM (inactive), the GI50 (A549) was > 100 µM (inactive) and the GI50 (LOX IMVI) was > 100 µM (inactive). The GI50 (ACHN) was > 100 µM (inactive), the GI50 (OVCAR-5) was > 100 µM (inactive) and the GI50 (SR) was > 100 µM (inactive). The GI50 (MDA-N) was > 100 µM (inactive), the GI50 (KM12) was > 100 µM (inactive) and the GI50 (SF-295) was > 100 µM (inactive). For the same molecule, the GI50 (SF-268) was > 100 µM (inactive), the GI50 (EKVX) was > 100 µM (inactive) and the GI50 (NCI-H460) was > 100 µM (inactive). The GI50 (PC-3) was > 100 µM (inactive), the GI50 (COLO 205) was > 100 µM (inactive) and the GI50 (M14) was > 100 µM (inactive). For the same molecule, the GI50 (T47D) was > 100 µM (inactive), the GI50 (BT-549) was > 100 µM (inactive) and the GI50 (NCI-H23) was > 100 µM (inactive). The GI50 (HL-60) was > 100 µM (inactive), the GI50 (MOLT-4) was > 100 µM (inactive) and the GI50 (SNB-19) was > 100 µM (inactive). The GI50 (SW-620) was > 100 µM (inactive), the GI50 (DU-145) was > 100 µM (inactive) and the GI50 (UACC-62) was > 100 µM (inactive). For the same molecule, the GI50 (UO-31) was > 100 µM (inactive), the GI50 (K562) was > 100 µM (inactive) and the GI50 (OVCAR-4) was > 100 µM (inactive). For the same molecule, the GI50 (HCT-116) was > 100 µM (inactive), the GI50 (SK-OV-3) was > 100 µM (inactive) and the GI50 (MCF7) was 70.6 µM (inactive). For the same molecule, the GI50 (NCI-H226) was > 100 µM (inactive), the GI50 (SK-MEL-2) was > 100 µM (inactive) and the GI50 (U-251) was > 100 µM (inactive).
For `CCOC(=O)C1=c2[nH]c3cccc4cccc(c43)n2C(=O)CC1c1ccccc1` (stereo not drawn), the GI50 (MDA-MB-435) was > 100 µM (inactive), the GI50 (HCT-15) was over 100 µM and the GI50 (Malme-3M) was > 100 µM (inactive). The GI50 (RXF 393) was > 100 µM (inactive), the GI50 (MDA-MB-231) was > 100 µM (inactive) and the GI50 (SK-MEL-28) was > 100 µM (inactive). The GI50 (HCC 2998) was > 100 µM (inactive), the GI50 (SNB-75) was > 100 µM (inactive) and the GI50 (RPMI-8226) was > 100 µM (inactive). The GI50 (HOP-62) was > 100 µM (inactive), the GI50 (SK-MEL-5) was > 100 µM (inactive) and the GI50 (786-0) was > 100 µM (inactive). The GI50 (CCRF-CEM) was > 100 µM (inactive), the GI50 (HOP-92) was > 100 µM (inactive) and the GI50 (OVCAR-8) was > 100 µM (inactive). For the same molecule, the GI50 (SN12C) was > 100 µM (inactive), the GI50 (NCI-H522) was > 100 µM (inactive) and the GI50 (NCI/ADR-RES) was > 100 µM (inactive). The GI50 (A498) was > 100 µM (inactive), the GI50 (CAKI-1) was > 100 µM (inactive) and the GI50 (Hs-578T) was > 100 µM (inactive). For the same molecule, the GI50 (UACC-257) was > 100 µM (inactive), the GI50 (IGROV-1) was > 100 µM (inactive) and the GI50 (HT-29) was > 100 µM (inactive). The GI50 (A549) was > 100 µM (inactive), the GI50 (LOX IMVI) was > 100 µM (inactive) and the GI50 (ACHN) was > 100 µM (inactive). The GI50 (TK-10) was > 100 µM (inactive), the GI50 (OVCAR-5) was > 100 µM (inactive) and the GI50 (SR) was > 100 µM (inactive). The GI50 (MDA-N) was > 100 µM (inactive), the GI50 (KM12) was > 100 µM (inactive) and the GI50 (SF-295) was > 100 µM (inactive). The GI50 (SF-268) was > 100 µM (inactive), the GI50 (EKVX) was > 100 µM (inactive) and the GI50 (NCI-H460) was > 100 µM (inactive). The GI50 (PC-3) was > 100 µM (inactive), the GI50 (COLO 205) was > 100 µM (inactive) and the GI50 (M14) was > 100 µM (inactive). For the same molecule, the GI50 (T47D) was > 100 µM (inactive), the GI50 (BT-549) was > 100 µM (inactive) and the GI50 (NCI-H23) was > 100 µM (inactive). For the same molecule, the GI50 (HL-60) was 95.5 µM (inactive), the GI50 (MOLT-4) was > 100 µM (inactive) and the GI50 (SNB-19) was > 100 µM (inactive). The GI50 (SW-620) was > 100 µM (inactive), the GI50 (DU-145) was > 100 µM (inactive) and the GI50 (UACC-62) was > 100 µM (inactive). For the same molecule, the GI50 (UO-31) was > 100 µM (inactive), the GI50 (K562) was > 100 µM (inactive) and the GI50 (OVCAR-4) was > 100 µM (inactive). The GI50 (HCT-116) was > 100 µM (inactive), the GI50 (SK-OV-3) was > 100 µM (inactive) and the GI50 (MCF7) was > 100 µM (inactive). For the same molecule, the GI50 (NCI-H226) was > 100 µM (inactive), the GI50 (SK-MEL-2) was > 100 µM (inactive) and the GI50 (U-251) was > 100 µM (inactive).
